Series [1] addresses Adenosine receptor A2a (Homo sapiens, UniProt P29274). Put plainly: Binding affinity to human adenosine A2A receptor.
The species named for series [2] is Homo sapiens. Put plainly: Selectivity of human adenosine A2A receptor over human adenosine A1 receptor.
Series [3] has as its system Rattus norvegicus. Put plainly: Inhibition of haloperidol-induced catalepsy in rat at 1 mg/kg, po after 1 hr. Format: functional.
Series [4] has as its system Rattus norvegicus. Put plainly: Inhibition of haloperidol-induced catalepsy in rat at 1 mg/kg, po after 4 hrs. Format: functional.
A short description of series [5]: Cmax in rat at 3 mg/kg, po. The series is classed as ADME, organism-based. Further details: dose 3 mg/kg, route oral. As to conditions: in vivo.
A short description of series [6]: Tmax in rat at 3 mg/kg, po. The settings on record: in vivo. Also on record: dose 3 mg/kg, route oral. The series is classed as ADME, organism-based.
Series [7] is described as follows: AUC in rat at 3 mg/kg, po. Format: ADME, organism-based. Also on record: dose 3 mg/kg, route oral. As to conditions: plasma.
A short description of series [8]: Half life in rat at 1 mg/kg, iv. The series is classed as ADME, organism-based. As to conditions: in vivo. Also on record: dose 1 mg/kg, route intravenous.
A short description of series [9]: Clearance in rat at 1 mg/kg, iv. The series is classed as ADME, organism-based. Further details: dose 1 mg/kg, route intravenous. As to conditions: in vivo.
Series [10] in a line: Volume of distribution at steady state in rat at 1 mg/kg, iv. Format: ADME, organism-based. Also on record: dose 1 mg/kg, route intravenous. As to conditions: in vivo, read-out: Vdss.
Series [11] can be described thus: Oral bioavailability in rat at 3 mg/kg. Format: ADME, organism-based. The settings on record: in vivo.
Series [12] in a line: Ratio of drug level in brain to plasma in rat. The series is classed as ADME.
For series [13], the species on record is Homo sapiens. Briefly: Selectivity of human adenosine A2A receptor over human adenosine A2B receptor.
The species named for series [14] is Homo sapiens. Put plainly: Selectivity of human adenosine A2A receptor over human adenosine A3 receptor.
The target of series [15] is Adenosine receptor A2a (Rattus norvegicus) (UniProt P30543). Put plainly: Antagonist activity at rat adenosine A2A receptor assessed as CGS 21680-induced inhibition of adenylate cyclase activity by cell-based assay. Format: functional.
Series [16] deals with Adenosine receptor A2a (Rattus norvegicus, UniProt P30543). Briefly: Binding affinity to rat adenosine A2A receptor.
For series [17], the system named is Rattus norvegicus. Briefly: Reversal of haloperidol-induced catalepsy in orally dosed rat after 1 hr. As to conditions: po, read-out: MED. The series is classed as functional.
Series [18] addresses T1, Adenosine receptor A1 (Homo sapiens, UniProt P30542).
T1 sequence (P30542 whole entry): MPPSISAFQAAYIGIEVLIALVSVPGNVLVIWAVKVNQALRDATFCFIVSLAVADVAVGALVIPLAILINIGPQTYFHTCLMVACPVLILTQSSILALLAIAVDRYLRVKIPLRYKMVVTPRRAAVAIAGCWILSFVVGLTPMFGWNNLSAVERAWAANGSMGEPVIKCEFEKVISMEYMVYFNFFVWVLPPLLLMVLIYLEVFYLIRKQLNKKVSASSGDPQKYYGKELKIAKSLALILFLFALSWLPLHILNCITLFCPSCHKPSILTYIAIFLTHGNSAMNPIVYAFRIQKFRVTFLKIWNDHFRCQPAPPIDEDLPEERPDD
Put plainly: Binding affinity to human adenosine A1 receptor.

For series [19], the target named is T2, Adenosine receptor A2b (Homo sapiens, UniProt P29275).
T2 sequence (P29275 whole entry): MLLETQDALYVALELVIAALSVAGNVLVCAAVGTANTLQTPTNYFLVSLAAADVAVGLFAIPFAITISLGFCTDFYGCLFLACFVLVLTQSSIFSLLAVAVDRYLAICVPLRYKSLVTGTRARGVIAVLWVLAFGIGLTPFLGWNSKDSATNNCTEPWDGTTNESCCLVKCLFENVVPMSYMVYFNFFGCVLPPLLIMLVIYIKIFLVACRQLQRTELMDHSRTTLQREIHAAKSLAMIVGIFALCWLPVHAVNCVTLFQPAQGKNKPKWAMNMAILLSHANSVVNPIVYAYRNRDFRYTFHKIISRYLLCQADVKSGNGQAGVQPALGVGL
Briefly: Binding affinity to human adenosine A2B receptor.

The target in series [20] is T3, Adenosine receptor A3 (Homo sapiens, UniProt P0DMS8).
T3 sequence (P0DMS8 whole entry): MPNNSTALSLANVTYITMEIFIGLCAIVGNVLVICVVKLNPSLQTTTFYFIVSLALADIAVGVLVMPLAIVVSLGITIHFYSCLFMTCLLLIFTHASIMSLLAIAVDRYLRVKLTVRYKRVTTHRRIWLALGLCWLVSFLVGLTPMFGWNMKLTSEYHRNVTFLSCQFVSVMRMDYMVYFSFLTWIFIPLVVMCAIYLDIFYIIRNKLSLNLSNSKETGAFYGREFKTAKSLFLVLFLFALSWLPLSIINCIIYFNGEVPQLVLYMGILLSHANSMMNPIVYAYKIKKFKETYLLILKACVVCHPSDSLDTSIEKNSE
Put plainly: Binding affinity to human adenosine A3 receptor.

A short description of series [21]: Solubility in water at pH 5.1. The series is classed as physicochemical.
Series [22] is described as follows: Solubility in 0.01 N Hcl. The series is classed as physicochemical. As to conditions: buffer.

The structures appear in SMILES notation. Values after ≈ are worked out from the molar mass of the structure shown.

Adenosine receptor A2a (Homo sapiens, UniProt P29274), sequence (P29274 whole entry): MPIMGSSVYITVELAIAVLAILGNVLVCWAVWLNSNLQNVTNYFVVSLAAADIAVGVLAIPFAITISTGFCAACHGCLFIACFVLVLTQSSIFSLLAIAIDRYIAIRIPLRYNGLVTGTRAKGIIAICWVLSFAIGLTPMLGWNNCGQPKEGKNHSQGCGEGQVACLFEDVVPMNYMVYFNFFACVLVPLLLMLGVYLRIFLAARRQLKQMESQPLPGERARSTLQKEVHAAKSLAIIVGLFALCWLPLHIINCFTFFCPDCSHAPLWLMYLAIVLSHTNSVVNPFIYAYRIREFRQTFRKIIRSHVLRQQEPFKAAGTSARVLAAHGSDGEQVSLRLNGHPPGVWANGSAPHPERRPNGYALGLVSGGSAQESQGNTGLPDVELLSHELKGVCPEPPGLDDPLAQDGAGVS
Adenosine receptor A2a (Rattus norvegicus), sequence (P30543 whole entry): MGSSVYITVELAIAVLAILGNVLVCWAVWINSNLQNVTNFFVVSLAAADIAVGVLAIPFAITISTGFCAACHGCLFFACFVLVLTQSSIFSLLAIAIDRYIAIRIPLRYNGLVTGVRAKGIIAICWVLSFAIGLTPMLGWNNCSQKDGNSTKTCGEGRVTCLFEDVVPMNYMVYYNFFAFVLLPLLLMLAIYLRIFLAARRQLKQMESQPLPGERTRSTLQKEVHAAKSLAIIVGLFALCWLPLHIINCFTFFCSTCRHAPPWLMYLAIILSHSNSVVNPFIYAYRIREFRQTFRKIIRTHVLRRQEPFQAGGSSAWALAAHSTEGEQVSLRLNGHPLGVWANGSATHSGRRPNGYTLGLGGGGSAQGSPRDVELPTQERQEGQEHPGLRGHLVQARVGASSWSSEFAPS
Adenosine receptor A2a (Rattus norvegicus, UniProt P30543), sequence (P30543 whole entry): as above

Turning to `Nc1nc2c(cnn2CCN2CCN(c3ccc(F)c(F)c3)CC2)c2nc(-c3ccco3)nn12`, the affinity in series [1], expressed as Ki, was 1.4 nM. Moreover, the Ratio Ki in series [2] was 169. Besides, in series [3], testing at 1 mg/kg gave an inhibition in vivo of 45%.
The matching figures for `N#Cc1ccc(N2CCN(CCn3ncc4c3nc(N)n3nc(-c5ccco5)nc43)CC2)cc1`: 2.1 nM, 571 and 0%.
On to `COCCOc1ccc(N2CCN(CCn3ncc4c3nc(N)n3nc(-c5ccco5)nc43)CC2)c(F)c1`, for which affinity in [1] was put at a Ki of 0.4 nM. The Ratio Ki in series [2] came to 1740. Also, the inhibition in vivo (usually the relative decrease from the control value, in per cent) at 1 mg/kg in series [3] worked out at 60%; in series [4], 70%.
For `Nc1nc2c(cnn2CCN2CCN(c3c(F)cc(F)cc3F)CC2)c2nc(-c3ccco3)nn12`, in that order: 1.1 nM, 319, 65% and 75%.
As to `CC(=O)COc1ccc(N2CCN(CCn3ncc4c3nc(N)n3nc(-c5ccco5)nc43)CC2)cc1`, the affinity in series [1], expressed as Ki, was 0.8 nM. Further, in series [2], the Ratio Ki amounted to 427. Besides, the inhibition in vivo at 1 mg/kg in series [3] turned out to be 15%; in [4], 10%.
As for `Nc1nc2c(cnn2CCN2CCN(c3ccc(F)cc3)CC2)c2nc(-c3ccco3)nn12`, in series [1], the Ki (in general, a measure of affinity in units of concentration, obtained from inhibition or displacement) was found to be 1 nM. The Ratio Ki in series [2] came to 101. The compound further gave an inhibition in vivo at 1 mg/kg in [3] of 8%.
For `CCOc1ccc(N2CCN(CCn3ncc4c3nc(N)n3nc(-c5ccco5)nc43)CC2)cc1`, in that order: 1.4 nM, 848 and 27%.
In series [1], `Nc1nc2c(cnn2CCN2CCN(c3ccc(OCCOC4CC4)cc3)CC2)c2nc(-c3ccco3)nn12` showed a Ki of 0.6 nM. In series [2], the Ratio Ki is 930. For the same compound, the inhibition in vivo at 1 mg/kg worked out at 59% in [3] and 30% in series [4].
For `Nc1nc2c(cnn2CCN2CCN(c3ccccc3F)CC2)c2nc(-c3ccco3)nn12`, in that order: 0.6 nM, 894, 20% and 25%.
With `C[S+]([O-])COc1ccc(N2CCN(CCn3ncc4c3nc(N)n3nc(-c5ccco5)nc43)CC2)cc1` (stereo unspecified), in series [1], the Ki came to 2.2 nM. The Ratio Ki in series [2] was 523. Besides, the inhibition in vivo at 1 mg/kg in series [3] was found to be 30%; in series [4] it was 5%.
As to `COCCOc1ccc(N2CCN(CCn3ncc4c3nc(N)n3nc(-c5ccco5)nc43)CC2)cc1.Cl`, the Cmax (in general, the highest concentration seen after dosing) in series [5] amounted to 762 nM. Besides, the Tmax – broadly, the time at which the peak concentration occurs – in series [6] was 0.25 h. Also, the AUC (as a rule, the area under the concentration-time curve, a measure of exposure) in [7] was found to be 1.56 µM·h. In addition, the half-life (usually the time needed for the level to fall by half in the phase considered) in series [8] was 2.1 h. Also, the clearance (in general, the rate of elimination divided by the concentration) in series [9] amounted to 37 mL/min/kg. For the same compound, the Vd in series [10] worked out at 2.6 L/kg. Moreover, in series [11], the bioavailability (in general, dose-corrected exposure relative to a reference, in per cent) stood at 57%. Besides, the Kp (as a rule, the ratio of the level in a tissue or fluid to that in plasma or blood) in series [12] is 1.
With `Nc1nc2c(cnn2CCN2CCN(c3ccc(Cl)cc3)CC2)c2nc(-c3ccco3)nn12`, the Ki in series [1] was determined as 0.5 nM. Also, the Ratio Ki in series [2] stood at 1350. In addition, the inhibition in vivo at 1 mg/kg in series [3] was 11%.
`Nc1nc2c(cnn2CCN2CCN(c3ccccc3)CC2)c2nc(-c3ccco3)nn12` returned an inhibition constant (Ki) in series [1] of 1.6 nM. Besides, the Ratio Ki in series [2] came out at 343. Moreover, the inhibition in vivo at 1 mg/kg in series [3] was found to be 52%; in series [4] it was 0%.
For `COCCCOc1ccc(N2CCN(CCn3ncc4c3nc(N)n3nc(-c5ccco5)nc43)CC2)cc1`, in that order: 0.6 nM, 1160, 8% and 2%.
The matching figures for `COC(C)COc1ccc(N2CCN(CCn3ncc4c3nc(N)n3nc(-c5ccco5)nc43)CC2)cc1` (racemic): 1.6 nM, 539, 55% and 20%.
The matching figures for `Nc1nc2c(cnn2CCN2CCN(c3ccc(OCCO)cc3)CC2)c2nc(-c3ccco3)nn12`: 0.6 nM, 1520, 15% and 25%.
Turning to `COCCOc1ccc(N2CCN(CCn3ncc4c3nc(N)n3nc(-c5ccco5)nc43)CC2)cc1`, the Activity in series [13] and in series [14] was more than 1000 each time. Moreover, the Kb (usually the affinity of an antagonist, worked out from how it opposes an agonist) in series [15] came to 0.7 nM.
For `Nc1nc2c(cnn2CCN2CCN(c3ccc(F)cc3F)CC2)c2nc(-c3ccco3)nn12`, in series [1], the Ki was 0.6 nM. In addition, in series [2], the Ratio Ki was more than 1600. Moreover, the inhibition in vivo at 1 mg/kg in [3] is 75%; in series [4], 80%.
The matching figures for `Nc1nc2c(cnn2CCN2CCN(c3ccc(F)c(F)c3F)CC2)c2nc(-c3ccco3)nn12`: 0.6 nM, 1500, 65% and 40%.
Take `COCCOc1ccc(N2CCN(CCn3ncc4c3nc(N)n3nc(-c5ccco5)nc43)CC2)cc1` [PRELADENANT]: the values for the inhibition in vivo at 1 mg/kg in series [3] and in series [4] were 77% and 70%, respectively. Moreover, the Ki is 2.5 nM in series [16], more than 1000 nM in series [18], more than 1700 nM in series [19] and more than 1000 nM in series [20]. In series [17], the minimal effective dose was 0.3 mg/kg. Besides, the solubility (as a rule, the dissolved amount per volume that the medium holds) in series [21] came out at 0.2 µM (≈ 0.101 µg/mL); in [22], 2000 µM (≈ 1010 µg/mL).
Consider `Nc1nc2c(cnn2CCN2CCN(c3ccc(O)cc3)CC2)c2nc(-c3ccco3)nn12`, for which the affinity in series [1], expressed as Ki, was 1.3 nM. The Ratio Ki in [2] was 186. In series [3], this compound yielded an inhibition in vivo at 1 mg/kg of 0%.
